The text below walks through data of publication PMC10747822 (Pharmaceutics, 2023).

Data set [1] can be described thus: Pooled human plasma (Li-heparin). To be noted: room temperature, up to 2 h.
The nature of data set [2]: human whole blood (K-EDTA). To be noted: room temperature, up to 2 h.

With Ac-[D-Leu]LLLRVK-amba, the not cleaved entry in data set [1] and in data set [2] was “no detectable degradation over at least 2 h” throughout.
